# Columns and labels:
# U1 cells = experiment: DC-driven HIV reactivation from U1 cells (moDC co-culture); format: cell-based; conditions: moDCs treated with TGF-β1 10 ng/ml for last 2 days, with or without galunisertib; 18 hrs co-culture
# Description: CD14^+ cells were isolated from PBMC using the Miltenyi CD14^+ beads. Monocyte-derived DCs (moDCs) were obtained from CD14+ cells cultured in GM-CSF and IL-4 as previously described (55). At day 4 of moDCs differentiation, TGF-β1 (10 ng/ml R&D systems) was added to the moDCs to generate the TGF-β-DCs (or both TGF-β1 and galunisertib). At day 6, 2 days after TGF-1 addition, moDCs were phenotyped (in 3 donors; See Table 2 for antibodies list) and co-cultured with eFluor670 (eBioscience)-labelled U1 at 3:1 U1:DC ratio (5 donors). After 18 hrs of co-culture, cells were stained for p24 intracellularly as described above.
# HIV-Bal = experiment: In vitro HIV-1 replication in SupT1 cells and PHA-PBMC (p24 ELISA); format: cell-based; conditions: SupT1 cells and PBMC from healthy donors, different concentrations of galunisertib
# Description: For control experiments of the impact of galunisertib on HIV infection of SupT1 cells and PBMC, SupT1 cells and PHA-activated PBMC were cultured respectively at 1 and 2 millions/ml in R10 (in presence of 20 U/ml of IL-2 for the PBMC) and infected with 50 TCID50/10^6 cells of HIV-Bal (0.01 MOI). HIV replication was monitored by p24 ELISA.
# SIVmac251 or SIVmac239 = experiment: Tissue cell-associated vRNA/vDNA, colorectal biopsies and LN FNA; format: in vivo, rhesus macaques
# Description: Blood was collected in EDTA tubes and plasma was separated by density gradient centrifugation and used for the determination of plasma VL by SIVgag qRT-PCR at NIRC or at Leidos (Quantitative Molecular Diagnostics Core, AIDS and Cancer Virus Program Frederick National Laboratory). Tissue VL from snap frozen colorectal biopsies and LN FNA were performed at Leidos (A14X004, A14X005 and A14X013) as described in (78) or, for the remaining macaques and from PBMC of all macaques they were performed as described in (77).
# SIVmac239M2 = experiment: Plasma viral load, four 2-week galunisertib cycles; format: in vivo, rhesus macaques
# Description: Rhesus macaques (n=8 main study+4 separate non-concomitant study) were infected with 300 TCID50 of the barcoded SIVmac239M2 stock intravenously and ART (Tenofovir [PMPA], Emtricitabine [FTC] and Dolutegravir [DTG]) was initiated on week 6 pi. Galunisertib treatment was initiated on week 35 p.i. Powder (MedChemExpress—MCE, NJ, USA) was dissolved in water and given orally in a treat twice daily at 20 mg/kg. 4 cycles of 2 weeks daily treatment with 2 weeks wash out period were performed. Macaques 08M156 and A6X003 were given the rhesus recombinant antibody (rhesus/human chimeric) anti-PD1 antibody [NIVOR4LALA; comprising silenced rhesus IgG4k […] constant regions and variable regions from anti-human PD-1, nivolumab; non-human primates reagents resource, NHPRR. Blood viral load was monitored biweekly before and during ART and every 3-4 days during Galunisertib treatment. Colorectal biopsies and LN FNA were collected before and after galunisertib treatment. ART was terminated 3 weeks after the last galunisertib dose and euthanasia and necropsy to harvest tissues were performed at week 58 post infection, tissues samples were flash frozen, fixed in OCT or Z-fix.
# Blood was collected in EDTA tubes and plasma was separated by density gradient centrifugation and used for the determination of plasma VL by SIVgag qRT-PCR at NIRC or at Leidos (Quantitative Molecular Diagnostics Core, AIDS and Cancer Virus Program Frederick National Laboratory). Tissue VL from snap frozen PBMC pellets, colorectal biopsies and LN FNA were performed as described in (77). SIV-TILDA was performed on freshly stored PBMC before cycle 1 and at the end of cycle 4 of galunisertib by Accelevir, Baltimore, MD.
# Tregs and Tfh cells = experiment: Circulating Treg and Tfh frequencies by flow cytometry; format: in vivo, rhesus macaques
# Description: Peripheral blood mononuclear cells (PBMCs) collected from 8 macaques at 7 time points spanning Cycle 1 to Cycle 4 (refer to Table 5) were employed for high-parameter flow cytometry staining. Cells from before and after cycle 1 and at the end of cycle 3 were used for Tfh/Treg assay. In both cases, cell fixation and permeabilization for intracellular staining were carried out using the FoxP3 Staining Buffer set (Thermo Fisher Scientific, Carlsbad, CA). The high-dimensional panel consisted of antibodies outlined in Table 4, catering to requirements for surface and intracellular staining, as well as viability assessment. Each antibody was individually titrated to ensure optimal staining conditions. Data acquisition was performed using the FACSymphony A5.2 Spectral Analyzer. Following data collection, spectral compensation was implemented utilizing FlowJo™ v10.8 Software (BD Life Sciences). 60,000 live singlet lymphocytes from each of samples was downsampled to prevent disproportionate representation by samples with higher cell counts, ensuring balanced subsequent analysis. To mitigate batch effects, we utilized the swiftReg Neighbor-Dependent Cluster Registration (NDCR) method available within the SWIFT package(112). This method effectively addresses batch variations while preserving the inherent biological diversity. […] Furthermore, we implemented the Peak Extraction and Cleaning Oriented Quality Control (PeacoQC) procedure (138) in FlowJo™ v10.8 to eliminate low-quality events arising from potential issues like clogs, speed fluctuations, and slow sample uptake. FlowSOM FlowJo plugin was employed for automated cell population identification, preceded by the utilization of Phenograph to obtain optimal cluster numbers for dimensional reduction, for the merged data of All Time points and BC1 vs AC4 merged data respectively. The Supplementary FIG. 29A heatmap illustrates the median fluorescence intensity (MFI) values for all markers across all clusters. […]
compound,measurement,setting,value
"Cc1cccc(-c2nn3c(c2-c2ccnc4ccc(C(N)=O)cc24)CCC3)n1 [galunisertib, Galunisertib]",frequency of p24-gag+ U1 cells in cocultures with TGF-β1-treated DCs versus untreated DCs,U1 cells,blocked
same,HIV-1 growth curves,HIV-Bal,no impact
same,ratio CA-RNA/DNA,SIVmac251 or SIVmac239; at least 2 macaques (A14X027 and A14X064),increased substantially
same,increase in cell associated vRNA (CA-RNA),"SIVmac251 or SIVmac239; colorectal biopsies and LN FNA, before vs after treatment",1 to 3 log
same,macaques with increased pVL after start of treatment,"SIVmac239M2; 20 mg/Kg twice daily orally, 4 cycles",7 out of 8
same,increases in pVL in fully suppressed macaques,"SIVmac239M2; 08M171, A8R095 and A8L057",> 102 copies/ml
same,viral rebound after ART interruption,"SIVmac239M2; ART discontinued 3 weeks after last dose, 6 weeks follow-up",One macaque did not rebound
same,macaques with viral blips above 100 copies/ml in blood,"SIVmac239M2; Example 5, 7 macaques, 20 mg/kg twice per day, four 2-weeks cycles",5 out of the 7
same,pVL peaks during treatment,SIVmac239M2; macaques with several peaks,up to 103 copies/ml
same,pVL blips in A8T010 and A8R095 after treatment initiation,SIVmac239M2; undetectable for over 5 weeks before,up to 102 copies/ml
same,circulating Tfh (CXCR5+PD1+) within total and central memory CD4+ T cells,Tregs and Tfh cells; end of treatment,lower
same,frequency of CD4+ Tregs (CD25high FoxP3+) and CD8+ Tregs,Tregs and Tfh cells; remained higher until end of 3rd cycle,increased after the first cycle
same,expression of CD39 on total and central memory CD4+ T cells,"Tregs and Tfh cells; rhesus monkey, in vivo",lower
